Measurements as given in article PMC9313321 (Biomedicines, 2022).
Entries after “also recorded” stand apart in the source; their conditions may differ.

Legend:
[1] = test system: SH-SY5Y cells; experiment: Neuroprotection against Aβ42-induced toxicity (MTT reduction); assay type: cell-based, human; conditions: 1 h pre-incubation + 24 h with Aβ42 1 µM, 4d at 3 µM
Procedure: (§1) SH-SY5Y human neuroblastoma cells (ATCC-CRL-2266) were kept in culture using Dulbecco’s Modified Eagle Medium (DMEM) (Gibco-Invitrogen, Life Technologies Ltd., Waltham, MA, USA) containing 10% heat-inactivated fetal bovine serum (FBS), 50 U mL^−1 penicillin and 50 μg mL^−1 streptomycin. Incubation of the cells occurred at 37 °C in 5% CO2. The toxicity of the compounds was tested through cell viability assays, with cells seeded with a density of 0.24 × 10^6 cells mL^−1. DMSO was used to dissolve each tested compound (4a–4d, 5a, 5b), affording stock solutions with concentrations of 25 mM. Aliquots of these solutions were stored at −20 °C. Concentrations from 1 μM to 10 μM were screened in order to select the highest non-toxic concentration of each compound. Consequently, compounds 4a, 4b and 5b were tested at 1 μM final concentration; compounds 4c and 5a were tested at 2 μM final concentration; compound 4d was tested at a final concentration of 3 μM. The DMSO concentrations in the culture media were lower than 0.05% (v/v) and the viability of the SH-SY5Y cells was not altered in a detectable manner. […]
(§2) The colorimetric MTT (3-(4,5-dimethylthiazol-2-yl)-2,5-diphenyltetrazolium bromide) reduction assay was used to determine cell viability. […] The absorbance of each well was measured at 570 nm. […]
(§3) All data were expressed as means ± SEMs of at least five independent experiments performed in duplicate. […]

[2] = test system: SH-SY5Y cells; experiment: Neuroprotection against Fe/Ascorbate toxicity (MTT reduction); assay type: cell-based, human; conditions: 1 h pre-incubation + 24 h with Fe 2.5 mM/Asc 5 mM, 5a at 2 µM
Procedure: as §1, §2, §3

| SMILES | Neuroprotective effect against Aβ42-induced toxicity (cell viability, MTT) [1] | Neuroprotective effect against Fe/Ascorbate toxicity (cell viability, MTT) [2] |
| --- | --- | --- |
| CCN(C)C(=O)Oc1ccc(CCCNC(=O)c2ccc3nc(-c4ccccc4O)[nH]c3c2)cc1 [Compound 4d, 4-(3-(2-(2-Hydroxyphenyl)-1H-benzo[d]imidazole-6-carboxamido)propyl) Phenyl Ethylmethylcarbamate] | significantly prevented Aβ-induced cell toxicity; also recorded: best neuroprotective capacities | – |
| CCN(C)C(=O)Oc1cccc(NC(=O)c2cccc3[nH]c(-c4ccccc4O)nc23)c1 [Compound 5a, 3-(2-(2-Hydroxyphenyl)-1H-benzo[d]imidazole-4-carboxamido)phenyl Ethylmethylcarbamate] | – | statistically significant neuroprotective effect; also recorded: best neuroprotective capacities |
